Test results as given in patent US20220054532A1, “VETERINARY COMPOSITIONS AND METHODS OF USE THEREFOR” (priority 2019, published 2022).

Key:
[1] = tested on: cats suffering behavior aberrations and/or anxiety; assay: Example 5: behavior aberrations and anxiety, Fe-BARQ (feline); type: in vivo; conditions: Fe-BARQ day 0 vs 60, SID, 0 (no improvement) to 3 (marked improvement)
From the text: This example examines the ability of embodiments of the invention versus Clomicalm® to reduce behavior aberrations and anxiety.
The first patient group is twenty dogs suffering behavior aberrations and/or anxiety, as determined by the canine behavioral assessment and research questionnaire (“C-BARQ”). See, e.g., P. Wiener et al., Use of questionnaire-based data to assess dog personality, 16 JOURNAL OF VETERINARY BEHAVIOR 81-85 (2016). The second patient group is twenty cats suffering behavior aberrations and/or anxiety, as determined by the feline behavioral assessment and research questionnaire (“Fe-BARQ”).
Each group is broken into five groups of four animals. The first group receives Clomicalm® as the sole active agent; the second group receives a composition comprising HMW HA as the sole active agent; the third group receives a composition comprising CBD as the sole active agent; the fourth group receives a composition comprising HMW HA and CBD as the active agents; and the fifth group receives a composition comprising HMW HA, CBD, valerian root, and scutillaria as the active agents.
Each composition is administered for a period of sixty (60) days, once a day (“SID”). Owners complete the species-appropriate C-BARQ or Fe-BARQ on days 0 and 60 of treatment. The results from the overall questionnaire are averaged and characterized as no improvement (score of 0), mild improvement (score of 1), moderate improvement (score of 2), or marked improvement (score of 3).
The following feline scores are observed and the results depicted in FIG. 5b: […]

[2] = tested on: dogs with a history of severe, chronic skin issues, atopy, pruritis, yeast overgrowth, and/or infection; assay: Example 16: skin conditions (itch score) and side effects in dogs (CBD Complex); type: in vivo; conditions: for Average Side Effect Score: dogs with skin conditions, 60 days BID; for Initial Itch Score / Final Itch Score: itch scale 0 (no itching) to 10 (extremely severe); for Initial Itch Score: day 0; for Final Itch Score: day 60, BID
From the text: This example examines the ability of embodiments of the invention versus prednisone to treat skin conditions.
The patient group is twenty-four dogs with a history of severe, chronic skin issues, atopy, pruritis, yeast overgrowth, and/or infection, as diagnosed by their referring veterinarian. The patient group is broken into six groups of four animals. The first group receives prednisone as the sole active agent; the second group receives a composition comprising prednisone and HMW HA as the active agents; the third group receives a composition comprising HMW HA as the sole active agent; the fourth group receives a composition comprising CBD as the sole active agent; the fifth group receives a composition comprising HMW HA and CBD Complex as the active agents; and the sixth group receives a composition comprising HMW HA, CBD Complex, quercetin, and nettles as the active agents.
Each composition is administered for a period of sixty (60) days, BID. Each dog is evaluated on days 0 (“Initial Score”), 20, 40, and 60 (“Final Score”) of treatment. The results are averaged and characterized on a scale of 0 (no itching—normal dog), 2 (very mild itching—only occasional episodes), 4 (mild itching), 6 (moderate itching—regular episodes), 8 (severe itching—prolonged episodes), to 10 (extremely severe itching—almost continuous).

| Compound | Improvement Score [1] | Average Side Effect Score [2] | Initial Itch Score [2] | Final Itch Score [2] |
| --- | --- | --- | --- | --- |
| C=C(C)[C@@H]1CCC(C)=C[C@H]1c1c(O)cc(CCCCC)cc1O [CBD Alone, 2-[(1R,6R)-3-methyl-6-prop-1-en-2-ylcyclohex-2-en-1-yl]-5-pentylbenzene-1,3-diol] | 1.8 | .5 | 9 | 5 |
| hyaluronic acid [HMW HA Alone] | 1 | 4 | 9 | 7 |
